Data reported in US20260166130A1, “PEPTIDE COMPOSITION HAVING ANGIOGENIC ACTIVITY, AND PHARMACEUTICAL COMPOSITION USING SAME AND COSMETIC COMPOSITION USING SAME” (LABTOMEDI CRO CO.,LTD., priority 2022, published 2026).
No end group written: not given here.

What was measured:
HUVECs [1] = assay: MTT cytotoxicity assay; assay type: cell-based, human; conditions: 0.1 μM, 0.5 μM, 1.0 μM and 2.0 μM, incubated overnight
Description: HUVECS (PromoCell, Heidelberg, Germany) were cultured in endothelial basal medium 2 (EBM) supplemented with Supplement Mix (PromoCell) containing 2% fetal bovine serum (FBS). The Supplement Mix consisted of 5 ng/mL epidermal growth factor (EGF), 10 ng/ml basic fibroblast growth factor (bFGF), 20 ng/mL insulin-like growth factor (IGF), 0.5 ng/mL VEGF, 1 ug/mL ascorbic acid, 22.5 ug/mL heparin, and 0.2 ug/mL hydrocortisone. In some experiments, cells were cultured in EBM medium supplemented with Supplement Mix, and cells between passages 2 and 7 were used in all experiments. Cells were cultured for 24 hours in a 5% CO2 incubator at a 37° C.
HUVECs were seeded at a density of 10,000 cells in 96-well plates (SPL, Korea) and incubated overnight with EBM-2 medium containing visfatin (1,000 ng/ml) and each of the peptides with the highest affinity, obtained from docking simulation, in a 5% CO2 incubator at 37° C. MIT reagent (Sigma-Aldrich) was added to each well to a final concentration of 0.5 mg/ml. After 4 hours, the medium was removed, the formazan crystals formed in the cells were dissolved in dimethyl sulfoxide (DMSO), and the absorbance of the formazan solution was measured at a wavelength of 540 nm using a Synergy HTX Multi-Mode Reader (BIO-TEK, Vermont, USA). Each sample was assayed in triplicate. […]

HUVECs [2] = assay: Blood vessel (tube) formation assay on Matrigel; assay type: cell-based, human; conditions: 4 hours, vs. control
Description: HUVECs (20,000 cells/well) were seed on a layer of previously polymerized Matrigel and treated with or without the first peptide and the second peptide. The Matrigel culture was incubated at 37° C. After 4 hours, changes in cell morphology were captured using a phase-contrast microscope (×40). Each sample was assayed in duplicate, and independent experiments were repeated three times. *P<0.05, **P,0.01, ***P<0.001 (vs. control).
HUVECs (20,000 cells/well) were seeded on a layer of previously polymerized Matrigel, treated with the visfatin-derived peptides, and then incubated in a 5% CO2 incubator at 37° C. for 4 hours. Then, changes in the cell morphology were observed and photographed using a phase-contrast microscope at 40× magnification. Each sample was assayed in duplicate, and independent experiments were repeated three times. Angiogenesis was analyzed with ImageJ software using an angiogenesis analyzer (Bethesda, MD, USA).

Substance	cell viability of HUVECs (cytotoxicity) (HUVECs [1])	number of master junctions (tube formation) (HUVECs [2]; second peptide except at the 2.0 μM concentration)	number of meshes (tube formation) (HUVECs [2]; positive controls)
EYKLHDFGYRGV [Peptide 2, EYKLHDFGYRGV]	did not affect the viability of the cells	–	–
LEYKLHDFGY [Peptide 1, LEYKLHDFGY]	did not affect the viability of the cells	–	–
basic fibroblast growth factor [bFGF]	–	significantly increased	not significantly changed
